In patent US20220387602A1, “BIFUNCTIONAL DEGRADERS AND THEIR METHODS OF USE” (NOVARTIS AG, priority 2019, published 2022):
“Also recorded” adds a separate entry of the source.

Experiments:
CRBN = CRBN (Homo sapiens, UniProt Q96SW2); assay: CRBN displacement assay Format 1 (fluorescence polarization, BodipyFL-lenalidomide probe Compound HH); format: binding
Protocol: Compounds were tested in the following biochemical and cellular assays.
BodipyFL conjugated lenalidomide compound HH was used as a fluorescent probe. […] Protein and substrate were diluted in assay buffer.
All protein and probe containing solutions were handled in ‘Maxymum Recovery’ tubes (Axygen Scientific Inc., Union City, USA). […] For the plate measurements a PHERAstar reader (BMG Labtech, Offenburg, Germany) was used. The instrument was equipped with a specific optics module containing filters and dichoic mirrors for measuring the fluorescence polarization-type assay. With this module, the fluorescence of the Bodipy FL-based probe was excited at 485 nm and the emissions of the product were measured at 520 nm. The fluorescence in each well was excited by 10 flashes per measurement.
For the determination of AC50 values, the assays were performed at room temperature in 384-well plates with a total assay volume of 10.1 μL per well. The test compound was dissolved in 90% (v/v) DMSO/water. For the assays, 100 nL of the 90% (v/v) DMSO/water solution or compound solution were added per well, followed by the addition of 5 μL protein solution (protein in 1× assay buffer).
The final assay concentration of the protein was nominally 100 nM. After 45 minutes of pre-incubation at room temperature, the competition for binding was started by the addition of 5 μL probe solution (probe dissolved in assay buffer). The final concentration of the probes in the assays was 5 nM. After the addition of the probe solution, the final DMSO concentration in the assay was 0.9% (v/v). The effect of the probe on the pre-established compound-protein complex equilibrium was determined after 45 minutes (t=45 min). The AC50 value was calculated from the plot of percentage of protein saturation versus the test compound concentration by a logistics fit according to: y=A^2+(A^1−A^2)/(1+(x/AC50)^p), where y is the %-saturation value at the test compound concentration, x. A^1 is the lowest saturation value, i.e., 0%, and A^2 the maximum saturation value, i.e. 100%. The exponent, p, is the Hill coefficient.

BTK = target: T1, BTK (Homo sapiens, UniProt Q06187); assay: BTK-GFP protein abundance flow cytometry assay in HEK293A; format: cell-based; settings: for BTK degradation Amax: % protein remaining at the concentration at which maximum degradation is seen, HEK293A; for BTK degradation Amax / DC50: 24 h; for DC50: concentration at which 50% maximal degradation was observed, HEK293A BTK-GFP sensor cells
T1 construct: the BTK open reading frame (ORF) was first shuttled from a pcDNA-DEST40-BTK vector; expressed in transfected cells; host or cells: HEK293A (Invitrogen R70507), lentiviral transduction, blasticidin selection
T1 sequence (Q06187 whole entry): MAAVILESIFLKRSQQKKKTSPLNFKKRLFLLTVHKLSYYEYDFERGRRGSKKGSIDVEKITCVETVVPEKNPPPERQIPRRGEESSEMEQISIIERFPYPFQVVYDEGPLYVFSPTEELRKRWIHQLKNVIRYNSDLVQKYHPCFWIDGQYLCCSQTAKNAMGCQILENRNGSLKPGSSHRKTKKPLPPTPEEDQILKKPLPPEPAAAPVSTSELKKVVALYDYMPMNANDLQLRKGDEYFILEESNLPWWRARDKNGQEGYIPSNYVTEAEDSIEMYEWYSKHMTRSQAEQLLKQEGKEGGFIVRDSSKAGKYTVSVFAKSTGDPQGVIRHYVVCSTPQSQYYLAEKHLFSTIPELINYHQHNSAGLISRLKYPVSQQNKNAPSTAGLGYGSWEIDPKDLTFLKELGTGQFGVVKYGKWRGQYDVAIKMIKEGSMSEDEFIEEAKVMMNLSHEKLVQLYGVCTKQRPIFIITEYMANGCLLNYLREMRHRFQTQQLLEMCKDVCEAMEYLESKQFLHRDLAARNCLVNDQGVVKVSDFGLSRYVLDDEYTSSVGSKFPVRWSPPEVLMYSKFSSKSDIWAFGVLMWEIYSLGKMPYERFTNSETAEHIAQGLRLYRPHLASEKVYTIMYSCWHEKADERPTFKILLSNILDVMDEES
Procedure, shortened: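 HEK293A cells stably expressing bicistronic BTK-GFP-iresRFP were treated 24 h at 37° C with 10-point 1:3 dilutions from 10 μM, DMSO at 0.1%. GFP was read by flow cytometry as median of 5,000 single cells, scaled between RFP-only cells (0%) and DMSO controls (100%). DC50 = concentration at 50% degradation; Amax = % protein remaining at maximal degradation.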

CRBN, sequence (Q96SW2 whole entry): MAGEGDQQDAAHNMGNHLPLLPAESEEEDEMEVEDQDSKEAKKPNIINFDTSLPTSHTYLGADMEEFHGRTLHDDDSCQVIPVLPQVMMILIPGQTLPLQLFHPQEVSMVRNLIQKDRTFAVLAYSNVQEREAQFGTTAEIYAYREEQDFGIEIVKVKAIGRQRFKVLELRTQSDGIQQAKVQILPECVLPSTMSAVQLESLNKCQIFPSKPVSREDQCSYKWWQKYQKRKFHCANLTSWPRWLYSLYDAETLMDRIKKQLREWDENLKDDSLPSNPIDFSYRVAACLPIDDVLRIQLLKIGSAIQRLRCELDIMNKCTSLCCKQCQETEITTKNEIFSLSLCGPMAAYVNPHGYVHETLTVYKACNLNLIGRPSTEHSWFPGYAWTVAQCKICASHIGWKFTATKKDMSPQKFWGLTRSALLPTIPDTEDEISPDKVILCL

| SMILES | AC50 (CRBN) [µM] | BTK degradation Amax (BTK) [%] | DC50 (BTK) [µM] | BTK degradation (BTK; extent of BTK degradation as stated in the text) |
| --- | --- | --- | --- | --- |
| Cc1c(NC(=O)c2ccc(C(C)(C)O)cc2F)cc(F)cc1-c1ncnc2[nH]c(-c3ccc(CNCCCCCCOc4cccc(N5CCC(=O)NC5=O)c4)cc3)cc12 [Compound 14, N-(3-(6-(4-(((6-(3-(2,4-Dioxotetrahydropyrimidin-1(2H)-yl)phenoxy)hexyl)amino)methyl)phenyl)-7H-pyrrolo[2,3-d]pyrimidin-4-yl)-5-fluoro-2-methylphenyl)-2-fluoro-4-(2-hydroxypropan-2-yl)benzamide] | 0.504 | 25.9 | 0.0259 |  |
| Cc1c(NC(=O)c2ccc(C(C)(C)O)cc2F)cc(F)cc1-c1ncnc2[nH]c(-c3ccc(CN4CCN(C(=O)N5CCN(CCC#Cc6cccc(N7CCC(=O)NC7=O)c6)CC5)CC4)cc3)cc12 [Compound 03, N-(3-(6-(4-((4-(4-(4-(3-(2,4-dioxotetrahydropyrimidin-1(2H)-yl)phenyl)but-3-yn-1-yl)piperazine-1-carbonyl)piperazin-1-yl)methyl)phenyl)-7H-pyrrolo[2,3-d]pyrimidin-4-yl)-5-fluoro-2-methylphenyl)-2-fluoro-4-(2-hydroxypropan-2-yl)benzamide] | 0.257 | 41.9 | 0.0248 |  |
| Cc1c(NC(=O)c2ccc(C(C)(C)O)cc2F)cc(F)cc1-c1ncnc2[nH]c(-c3ccc(CNCCN4CCC(Oc5ccc(N6CCC(=O)NC6=O)cc5)CC4)cc3)cc12 [Compound 29, N-(3-(6-(4-(((2-(4-(4-(2,4-dioxotetrahydropyrimidin-1(2H)-yl)phenoxy)piperidin-1-yl)ethyl)amino)methyl)phenyl)-7H-pyrrolo[2,3-d]pyrimidin-4-yl)-5-fluoro-2-methylphenyl)-2-fluoro-4-(2-hydroxypropan-2-yl)benzamide] | 2.39 | 40.5 | 0.0402 |  |
| Cc1ccc(N2CCC(=O)NC2=O)cc1CNC(=O)CCCCN(C)Cc1ccc(-c2cc3c(-c4cc(F)cc(NC(=O)c5ccc(C(C)(C)O)cc5F)c4C)ncnc3[nH]2)cc1 [Compound 08, N-(3-(6-(4-(((5-((5-(2,4-dioxotetrahydropyrimidin-1(2H)-yl)-2-methylbenzyl)amino)-5-oxopentyl)(methyl)amino)methyl)phenyl)-7H-pyrrolo[2,3-d]pyrimidin-4-yl)-5-fluoro-2-methylphenyl)-2-fluoro-4-(2-hydroxypropan-2-yl)benzamide] | 2.1 | 55.1 | > 3.33 |  |
| Cc1ncc(C(=O)NCCCCCN(C)Cc2ccc(-c3cc4c(-c5cc(F)cc(NC(=O)c6ccc(C(C)(C)O)cc6F)c5C)ncnc4[nH]3)cc2)cc1N1CCC(=O)NC1=O [Compound 17, 5-(2,4-Dioxotetrahydropyrimidin-1(2H)-yl)-N-(5-((4-(4-(5-fluoro-3-(2-fluoro-4-(2-hydroxypropan-2-yl)benzamido)-2-methylphenyl)-7H-pyrrolo[2,3-d]pyrimidin-6-yl)benzyl)(methyl)amino)pentyl)-6-methylnicotinamide] | 3.55 | 16.6 | 0.101 |  |
| Cc1c(NC(=O)N2C[C@H](CC(C)C)[C@@H](O)C2)cc(F)cc1-c1ncnc2[nH]c(-c3ccc(CN4CCC(OC5CCN(CCn6cccc(CN7CCC(=O)NC7=O)c6=O)CC5)CC4)cc3)cc12 [Compound 35, (3R,4S)—N-(3-(6-(4-((4-((1-(2-(3-((2,4-dioxotetrahydropyrimidin-1(2H)-yl)methyl)-2-oxopyridin-1(2H)-yl)ethyl)piperidin-4-yl)oxy)piperidin-1-yl)methyl)phenyl)-7H-pyrrolo[2,3-d]pyrimidin-4-yl)-5-fluoro-2-methylphenyl)-3-hydroxy-4-isobutylpyrrolidine-1-carboxamide] | 0.742 | 6.6 | 0.0021 |  |
| Cc1c(NC(=O)c2ccc(C(C)(C)O)cc2F)cc(F)cc1-c1ncnc2[nH]c(-c3ccc(CN4CCC(OC5CCN(CCn6cccc(CN7CCC(=O)NC7=O)c6=O)CC5)CC4)cc3)cc12 [Compound 33, N-(3-(6-(4-((4-((1-(2-(3-((2,4-dioxotetrahydropyrimidin-1(2H)-yl)methyl)-2-oxopyridin-1(2H)-yl)ethyl)piperidin-4-yl)oxy)piperidin-1-yl)methyl)phenyl)-7H-pyrrolo[2,3-d]pyrimidin-4-yl)-5-fluoro-2-methylphenyl)-2-fluoro-4-(2-hydroxypropan-2-yl)benzamide] | 0.915 | 6.1 | 0.0021 |  |
| Cc1c(NC(=O)c2ccc(C(C)(C)O)cc2F)cc(F)cc1-c1ncnc2[nH]c(-c3ccc(CN4CCC5(CC4)CN(CCCc4ccc(N6CCC(=O)NC6=O)cc4)CCO5)cc3)cc12 [Compound 20, N-(3-(6-(4-((4-(3-(4-(2,4-Dioxotetrahydropyrimidin-1(2H)-yl)phenyl)propyl)-1-oxa-4,9-diazaspiro[5.5]undecan-9-yl)methyl)phenyl)-7H-pyrrolo[2,3-d]pyrimidin-4-yl)-5-fluoro-2-methylphenyl)-2-fluoro-4-(2-hydroxypropan-2-yl)benzamide] | > 100 | 37.1 | 0.0277 |  |
| Cc1c(NC(=O)c2ccc(C(C)(C)O)cc2F)cc(F)cc1-c1ncnc2[nH]c(-c3ccc(CN4CCN(CCNC(=O)COc5ccc(N6CCC(=O)NC6=O)cc5)CC4)cc3)cc12 [Compound 26, N-(3-(6-(4-((4-(2-(2-(4-(2,4-Dioxotetrahydropyrimidin-1(2H)-yl)phenoxy)acetamido)ethyl)piperazin-1-yl)methyl)phenyl)-7H-pyrrolo[2,3-d]pyrimidin-4-yl)-5-fluoro-2-methylphenyl)-2-fluoro-4-(2-hydroxypropan-2-yl)benzamide] | 3.92 | 10.6 | 0.0112 |  |
| Cc1c(NC(=O)c2ccc(C(C)(C)O)cc2F)cc(F)cc1-c1ncnc2[nH]c(-c3ccc(CNCCCCCCn4cc(-c5cccc(N6CCC(=O)NC6=O)c5)nn4)cc3)cc12 [Compound 19, N-(3-(6-(4-(((6-(4-(3-(2,4-Dioxotetrahydropyrimidin-1(2H)-yl)phenyl)-1H-1,2,3-triazol-1-yl)hexyl)amino)methyl)phenyl)-7H-pyrrolo[2,3-d]pyrimidin-4-yl)-5-fluoro-2-methylphenyl)-2-fluoro-4-(2-hydroxypropan-2-yl)benzamide] | 0.104 | 48.2 | 0.229 |  |
| COc1ccc(C(=O)N2CCOC3(CCN(Cc4ccc(-c5cc6c(-c7cc(F)cc(NC(=O)c8ccc(C(C)(C)O)cc8F)c7C)ncnc6[nH]5)cc4)CC3)C2)cc1N1CCC(=O)NC1=O [Compound 01, N-(3-(6-(4-((4-(3-(2,4-dioxotetrahydropyrimidin-1(2H)-yl)-4-methoxybenzoyl)-1-oxa-4,9-diazaspiro[5.5]undecan-9-yl)methyl)phenyl)-7H-pyrrolo[2,3-d]pyrimidin-4-yl)-5-fluoro-2-methylphenyl)-2-fluoro-4-(2-hydroxypropan-2-yl)benzamide] | 1.59 | 98 | > 3.33 | no significant BTK degradation was observed; also recorded: no degradation of BTK was observed |
